Reference: patent US7371766B2, “Curcumin analogs with anti-tumor and anti-angiogenic properties” (Emory University, priority 1999, dated 2008)
Like-named read-outs stand apart in the source and are kept apart here.

Columns and labels:
[1] = test system: Sixty human tumor cell lines; settings: NCI Anti-Tumor Screen, several cell types
RPMI-8226 = test: cells; settings: Homo sapiens, RPMI-8226, 48 h; for GI50: read-out: Median Growth Inhibitory Concentration (GI50)
SR = test: cells; settings: Homo sapiens, 48 h; for GI50: read-out: Median Growth Inhibitory Concentration (GI50); for CC50: read-out: Median Lethal Concentration (LC50)
NCI-H226 = test: cells; settings: Homo sapiens, NCI-H226, 48 h; for GI50: read-out: Median Growth Inhibitory Concentration (GI50); for CC50: read-out: Median Lethal Concentration (LC50)
NCI-H23 = test: cells; settings: Homo sapiens, NCI-H23, 48 h; for GI50: read-out: Median Growth Inhibitory Concentration (GI50); for CC50: read-out: Median Lethal Concentration (LC50)
HCC-2998 = test: cells; settings: Homo sapiens, HCC 2998, 48 h; for GI50: read-out: Median Growth Inhibitory Concentration (GI50); for CC50: read-out: Median Lethal Concentration (LC50)
KM12 = test: cells; settings: Homo sapiens, KM12, 48 h; for GI50: read-out: Median Growth Inhibitory Concentration (GI50); for CC50: read-out: Median Lethal Concentration (LC50)
SF-268 = test: cells; settings: Homo sapiens, SF-268, 48 h; for GI50: read-out: Median Growth Inhibitory Concentration (GI50); for CC50: read-out: Median Lethal Concentration (LC50)
SF-539 = test: cells; settings: Homo sapiens, SF-539, 48 h; for GI50: read-out: Median Growth Inhibitory Concentration (GI50); for CC50: read-out: Median Lethal Concentration (LC50)
SNB-19 = test: cells; settings: Homo sapiens, SNB-19, 48 h; for GI50: read-out: Median Growth Inhibitory Concentration (GI50); for CC50: read-out: Median Lethal Concentration (LC50)
SNB-75 = test: cells; settings: Homo sapiens, SNB-75, 48 h; for GI50: read-out: Median Growth Inhibitory Concentration (GI50); for CC50: read-out: Median Lethal Concentration (LC50)
MALME-3M = test: cells; settings: Homo sapiens, 48 h; for GI50: read-out: Median Growth Inhibitory Concentration (GI50); for CC50: read-out: Median Lethal Concentration (LC50)
SK-MEL-2 = test: cells; settings: Homo sapiens, SK-MEL-2, 48 h; for GI50: read-out: Median Growth Inhibitory Concentration (GI50); for CC50: read-out: Median Lethal Concentration (LC50)
SK-MEL-28 = test: cells; settings: Homo sapiens, SK-MEL-28, 48 h; for GI50: read-out: Median Growth Inhibitory Concentration (GI50); for CC50: read-out: Median Lethal Concentration (LC50)
UACC-257 = test: cells; settings: Homo sapiens, UACC-257, 48 h; for GI50: read-out: Median Growth Inhibitory Concentration (GI50); for CC50: read-out: Median Lethal Concentration (LC50)
IGROV1 = test: cells; settings: Homo sapiens, IGROV-1, 48 h; for GI50: read-out: Median Growth Inhibitory Concentration (GI50); for CC50: read-out: Median Lethal Concentration (LC50)
OVCAR-3 = test: cells; settings: Homo sapiens, OVCAR-3, 48 h; for GI50: read-out: Median Growth Inhibitory Concentration (GI50); for CC50: read-out: Median Lethal Concentration (LC50)
OVCAR-5 = test: cells; settings: Homo sapiens, OVCAR-5, 48 h; for GI50: read-out: Median Growth Inhibitory Concentration (GI50); for CC50: read-out: Median Lethal Concentration (LC50)
SK-OV-3 = test: cells; settings: Homo sapiens, SK-OV-3, 48 h; for GI50: read-out: Median Growth Inhibitory Concentration (GI50); for CC50: read-out: Median Lethal Concentration (LC50)
786-0 = test: cells; settings: Homo sapiens, 786-0, 48 h; for GI50: read-out: Median Growth Inhibitory Concentration (GI50); for CC50: read-out: Median Lethal Concentration (LC50)
SN12C = test: cells; settings: Homo sapiens, 48 h; for GI50: read-out: Median Growth Inhibitory Concentration (GI50); for CC50: read-out: Median Lethal Concentration (LC50)
UO-31 = test: cells; settings: Homo sapiens, UO-31, 48 h; for GI50: read-out: Median Growth Inhibitory Concentration (GI50); for CC50: read-out: Median Lethal Concentration (LC50)
DU-145 = test: cells; settings: Homo sapiens, DU-145, 48 h; for GI50: read-out: Median Growth Inhibitory Concentration (GI50); for CC50: read-out: Median Lethal Concentration (LC50)
MDA-MB-435 = test: cells; settings: Homo sapiens, MDA-MB-435, 48 h; for GI50: read-out: Median Growth Inhibitory Concentration (GI50); for CC50: read-out: Median Lethal Concentration (LC50)
MDA-N = test: cells; settings: Homo sapiens, 48 h; for GI50: read-out: Median Growth Inhibitory Concentration (GI50); for CC50: read-out: Median Lethal Concentration (LC50)
[2] = test system: Sixty human tumor cell lines; test: cells; settings: 48 h; for GI50: read-out: Median Growth Inhibitory Concentration (GI50), Mean; for CC50: read-out: Median Lethal Concentration (LC50), Mean
[3] = test system: Vascular Endothelial Growth Factor (VEGF) production by human melanoma cell line RPMI-7951; test: VEGF ELISA, RPMI-7951; settings: for VEGF ELISA / VEGF: RPMI-7951; for VEGF ELISA: DMSO control 3713
RPMI-7951 human melanoma = test: Neutral Red Assay, cell viability, RPMI-7951; settings: Homo sapiens
[4] = Homo sapiens, RPMI-7951, 72 h, read-out: VEGF
[5] = RPMI-7951, 72 h, read-out: Neutral Red Uptake, %
[6] = RPMI-7951, read-out: Cell Viability

O=C(C=Cc1ccc(F)cc1F)C=Cc1ccc(F)cc1F [EF9, 1,5-Bis(2,4-difluorophenyl)penta-1,4-dien-3-one]
LC50 compared with CISPLATIN, in words [1]: lower LC50 than the chemotherapeutic agent CISPLATIN for several cell types | GI50 (RPMI-8226): 2.4 µM | CC50 (RPMI-8226; read-out: Median Lethal Concentration (LC50)): 95.6 µM | GI50 (SR): 1.2 µM | CC50 (SR): 77.9 µM | GI50 (NCI-H226): 24.3 µM | CC50 (NCI-H226): > 100 µM | GI50 (NCI-H23): 12.3 µM | CC50 (NCI-H23): 62.3 µM | GI50 (HCC-2998): 3.3 µM | CC50 (HCC-2998): 32.2 µM | GI50 (KM12): 2.3 µM | CC50 (KM12): 14.6 µM | GI50 (SF-268): 13.7 µM | CC50 (SF-268): > 100 µM | GI50 (SF-539): 2.6 µM | CC50 (SF-539): 23.1 µM | GI50 (SNB-19): 14.7 µM | CC50 (SNB-19): 58.8 µM | GI50 (SNB-75): 11.2 µM | CC50 (SNB-75): 48.8 µM | GI50 (MALME-3M): 17.8 µM | CC50 (MALME-3M): 73.4 µM | GI50 (SK-MEL-2): 14.5 µM | CC50 (SK-MEL-2): 58.9 µM | GI50 (SK-MEL-28): 18.6 µM | CC50 (SK-MEL-28): 61.1 µM | GI50 (UACC-257): 16 µM | CC50 (UACC-257): 62.1 µM | GI50 (IGROV1): 3.8 µM | CC50 (IGROV1): 46.2 µM | GI50 (OVCAR-3): 14.1 µM | CC50 (OVCAR-3): 52.1 µM | GI50 (OVCAR-5): 20 µM | CC50 (OVCAR-5): 63.3 µM | GI50 (SK-OV-3): 15.4 µM | CC50 (SK-OV-3): 53.7 µM | GI50 (786-0): 3.5 µM | CC50 (786-0): 49.6 µM | GI50 (SN12C): 17.1 µM | CC50 (SN12C): 62.3 µM | GI50 (UO-31): 9.6 µM | CC50 (UO-31): 49.5 µM | GI50 (DU-145): 2.1 µM | CC50 (DU-145): 29 µM | GI50 (MDA-MB-435): 3.2 µM | CC50 (MDA-MB-435): 35.9 µM | GI50 (MDA-N): 2.9 µM | CC50 (MDA-N): 33.2 µM | GI50 [2]: 7.2 µM | CC50 [2]: 52.5 µM | activity at 5 µM [3, 4]: 46% | activity at 20 µM [3, 4]: 14% | VEGF ELISA ([3]; 5 μM): 1868 pg/ml/well | VEGF ([3]; 5 μM, DMSO control 4197 (EF-25: 1045)): 1925 pg/mL | VEGF ELISA ([3]; 20 μM): 705 pg/ml/well | VEGF ([3]; 20 μM, DMSO control 4197): 595 pg/mL | viability at 5 µM (RPMI-7951 human melanoma; [5]): 88% | viability at 20 µM (RPMI-7951 human melanoma; [5]): 11% | viability at 5 µM (RPMI-7951 human melanoma; [6]): 92% | viability at 20 µM (RPMI-7951 human melanoma; [6]): 70%

CC(=O)O.O=C1C(=Cc2ccccc2F)CNCC1=Cc1ccccc1F [EF24, 3,5-Bis-(2-fluorobenzylidene)-piperidin-4-one-acetate]
GI50 compared with CISPLATIN, in words [1]: lower GI50 than the chemotherapeutic agent CISPLATIN for several cell types | LC50 compared with CISPLATIN, in words [1]: lower LC50 than the chemotherapeutic agent CISPLATIN for several cell types | GI50 (RPMI-8226): 0.2 µM | GI50 (SR): 0.1 µM | CC50 (SR): 68.2 µM | GI50 (NCI-H226): 3.6 µM | CC50 (NCI-H226): 48.3 µM | GI50 (NCI-H23): 0.9 µM | CC50 (NCI-H23): 5.3 µM | GI50 (HCC-2998): 1.1 µM | CC50 (HCC-2998): 5 µM | GI50 (KM12): 0.2 µM | CC50 (KM12): 3.4 µM | GI50 (SF-268): 0.6 µM | CC50 (SF-268): 55.6 µM | GI50 (SF-539): 0.3 µM | CC50 (SF-539): 7.6 µM | GI50 (SNB-19): 0.7 µM | CC50 (SNB-19): 19.3 µM | GI50 (SNB-75): 2 µM | CC50 (SNB-75): 8.8 µM | GI50 (MALME-3M): 2.3 µM | CC50 (MALME-3M): 25.2 µM | GI50 (SK-MEL-2): 2.6 µM | CC50 (SK-MEL-2): 19.5 µM | GI50 (SK-MEL-28): 2.1 µM | CC50 (SK-MEL-28): 33.1 µM | GI50 (UACC-257): 1.8 µM | CC50 (UACC-257): 13.5 µM | GI50 (IGROV1): 0.8 µM | CC50 (IGROV1): 7.1 µM | GI50 (OVCAR-3): 1.1 µM | CC50 (OVCAR-3): 16.2 µM | GI50 (OVCAR-5): 1.3 µM | CC50 (OVCAR-5): 9.2 µM | GI50 (SK-OV-3): 1.7 µM | CC50 (SK-OV-3): 12.8 µM | GI50 (786-0): 0.2 µM | CC50 (786-0): 1.6 µM | GI50 (SN12C): 1 µM | CC50 (SN12C): 5.4 µM | GI50 (UO-31): 0.6 µM | CC50 (UO-31): 4.5 µM | GI50 (DU-145): 0.7 µM | CC50 (DU-145): 5.4 µM | GI50 (MDA-MB-435): 0.6 µM | CC50 (MDA-MB-435): 7.4 µM | GI50 (MDA-N): 0.5 µM | CC50 (MDA-N): 5.6 µM | GI50 [2]: 0.7 µM | CC50 [2]: 13.2 µM
